Experimental data taken from patent publication US20230250060A1 (IFM Due, Inc., priority 2022, published 2023).

The molecules below were run against T1, STING (Homo sapiens, UniProt Q86WV6, G230A/H232R/R293Q/R71H) (assay: STING reporter assay (luciferase) in THP1-Dual KO-IFNAR2 cells stimulated with 2′3′cGAMP). Conditions: 2′3′cGAMP 15 μM final, 24 h, luciferase reporter activity, read-out: Pharmaron, THP1_IFNAR2 STING 24 h Luci Normalized: GeoMean EC50.
T1 construct: host or cells: THP1-Dual KO-IFNAR2 cells
T1 sequence (Q86WV6 whole entry R71H/G230A/H232R/R293Q): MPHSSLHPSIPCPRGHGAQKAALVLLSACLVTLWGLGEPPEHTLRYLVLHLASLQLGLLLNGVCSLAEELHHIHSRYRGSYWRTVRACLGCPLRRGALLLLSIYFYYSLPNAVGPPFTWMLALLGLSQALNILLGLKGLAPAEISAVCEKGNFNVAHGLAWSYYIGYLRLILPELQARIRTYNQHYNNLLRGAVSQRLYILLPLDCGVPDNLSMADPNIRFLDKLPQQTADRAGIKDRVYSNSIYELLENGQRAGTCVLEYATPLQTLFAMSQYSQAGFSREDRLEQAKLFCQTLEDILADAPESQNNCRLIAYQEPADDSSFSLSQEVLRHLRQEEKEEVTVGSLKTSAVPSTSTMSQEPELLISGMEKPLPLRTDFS
Assay type: cell-based
Summary of the method: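 THP1-Dual KO-IFNAR2 cells (2×10E6 cells/mL) exposed to compounds at 0.0017-100 μM final and stimulated with 2′3′cGAMP (15 μM final) delivered via Lipofectamine 2000. After 24 h at 37° C., secreted luciferase in supernatant read with QUANTI-Luc Plus; EC50 derived from luminescence.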
O=C(Nc1c[nH]c2ccc(OCC[C@@H]3C[C@@H]4CN(CC(F)(F)F)C[C@@H]4C3)cc12)C12CC(C1)C2 [Compound 186, N-(5-(2-((3aR,5r,6aS)-2-(2,2,2-trifluoroethyl)octahydrocyclopenta[c]pyrrol-5-yl)ethoxy)-1H-indol-3-yl)bicyclo[1.1.1]pentane-1-carboxamide] showed an EC50 of 200 to 1000 nM.
O=C(Nc1c[nH]c2ccc(OCC[C@@H]3C[C@@H]4CN(CC(F)(F)F)C[C@@H]4C3)cc12)c1ncccc1F [Compound 187, 3-fluoro-N-(5-(2-((3aR,5r,6aS)-2-(2,2,2-trifluoroethyl)octahydrocyclopenta[c]pyrrol-5-yl)ethoxy)-1H-indol-3-yl)picolinamide] showed an EC50 of 1000 to 5000 nM.
Molecule O=C(Nc1c[nH]c2ccc(OCC[C@@H]3C[C@@H]4CN(CC(F)(F)F)C[C@@H]4C3)cc12)c1nccs1 [Compound 188, N-(5-(2-((3aR,5r,6aS)-2-(2,2,2-trifluoroethyl)octahydrocyclopenta[c]pyrrol-5-yl)ethoxy)-1H-indol-3-yl)thiazole-2-carboxamide] has an EC50 of 200 to 1000 nM.
Cc1noc(C)c1C(=O)Nc1c[nH]c2ccc(OCC[C@@H]3C[C@@H]4CN(CC(F)(F)F)C[C@@H]4C3)cc12 [Compound 189, 3,5-dimethyl-N-(5-(2-((3aR,5r,6aS)-2-(2,2,2-trifluoroethyl)octahydrocyclopenta[c]pyrrol-5-yl)ethoxy)-1H-indol-3-yl)isoxazole-4-carboxamide] gave an EC50 of 200 to 1000 nM.
Molecule O=C(Nc1c[nH]c2ccc(OCC[C@@H]3C[C@@H]4CN(CC(F)(F)F)C[C@@H]4C3)cc12)c1cncs1 [Compound 190, N-(5-(2-((3aR,5r,6aS)-2-(2,2,2-trifluoroethyl)octahydrocyclopenta[c]pyrrol-5-yl)ethoxy)-1H-indol-3-yl)thiazole-5-carboxamide] has an EC50 of 200 to 1000 nM.
Work on O=C(Nc1c[nH]c2ccc(OCCc3ccc(C(F)(F)F)cc3)cc12)C1CC2(CCC2)C1 [Compound 191, N-(5-(4-(trifluoromethyl)phenethoxy)-1H-indol-3-y)spiro[3.3]heptane-2-carboxamide] yielded an EC50 of 40 to 200 nM.
Work on O=C(Nc1c[nH]c2ccc(O[C@H]3C[C@@H](c4ccc(C(F)(F)F)cc4)C3)cc12)c1cscn1 [Compound 192, N-(5-((1s,3s)-3-(4-(trifluoromethyl)phenyl)cyclobutoxy)-1H-indol-3-yl)thiazole-4-carboxamide] yielded an EC50 of 200 to 1000 nM.
In the case of O=C(Nc1c[nH]c2ccc(OCC[C@@H]3C[C@@H]4CN(CC(F)(F)F)C[C@@H]4C3)cc12)c1cscn1 [Compound 193, N-(5-(2-((3aR,5r,6aS)-2-(2,2,2-trifluoroethyl)octahydrocyclopenta[c]pyrrol-5-yl)ethoxy)-1H-indol-3-yl)thiazole-4-carboxamide], the EC50 is reported as 200 to 1000 nM.
For O=C(Nc1c[nH]c2ccc(CCOc3ccc(C(F)(F)F)cc3)cc12)c1ccncc1 [Compound 194, N-(5-(2-(4-(trifluoromethyl)phenoxy)ethyl)-1H-indol-3-yl)isonicotinamide], the EC50 was 200 to 1000 nM.
O=C(Nc1c[nH]c2ccc(CCOc3ccc(C(F)(F)F)cc3)cc12)c1cccnc1 [Compound 195, N-(5-(2-(4-(trifluoromethyl)phenoxy)ethyl)-1H-indol-3-yl)nicotinamide] was tested, and the EC50 was 200 to 1000 nM.
With O=C(Nc1c[nH]c2ccc(CCOc3ccc(C(F)(F)F)cc3)cc12)c1ccccn1 [Compound 196, N-(5-(2-(4-(trifluoromethyl)phenoxy)ethyl)-1H-indol-3-yl)picolinamide] the EC50 was 1000 to 5000 nM.
With O=C(CC1CC1)Nc1c[nH]c2ccc(CCOc3ccc(C(F)(F)F)cc3)cc12 [Compound 197, 2-cyclopropyl-N-(5-(2-(4-(trifluoromethyl)phenoxy)ethyl)-1H-indol-3-yl)acetamide] the EC50 was 200 to 1000 nM.
With O=C(Nc1c[nH]c2ccc(CCOc3ccc(C(F)(F)F)cc3)cc12)C1CC2(CC2)C1 [Compound 198, N-(5-(2-(4-(trifluoromethyl)phenoxy)ethyl)-1H-indol-3-yl)spiro[2.3]hexane-5-carboxamide] the EC50 was 200 to 1000 nM.
CC12CC(C(=O)Nc3c[nH]c4ccc(CCOc5ccc(C(F)(F)F)cc5)cc34)(C1)C2 [Compound 199, 3-methyl-N-(5-(2-(4-(trifluoromethyl)phenoxy)ethyl)-1H-indol-3-yl)bicyclo[1.1.1]pentane-1-carboxamide] showed an EC50 of 200 to 1000 nM.
For O=C(Nc1c[nH]c2ccc(CCOc3ccc(C(F)(F)F)cc3)cc12)C1CC12CC2 (centres unmarked) [Compound 200, N-(5-(2-(4-(trifluoromethyl)phenoxy)ethyl)-1H-indol-3-yl)spiro[2.2]pentane-1-carboxamide], the EC50 was 200 to 1000 nM.
With O=C(Nc1c[nH]c2ccc(CCOc3ccc(C(F)(F)F)cc3)cc12)c1nccs1 [Compound 201, N-(5-(2-(4-(trifluoromethyl)phenoxy)ethyl)-1H-indol-3-yl)thiazole-2-carboxamide] the EC50 was 200 to 1000 nM.
O=C(Nc1c[nH]c2ccc(CCOc3ccc(C(F)(F)F)cc3)cc12)c1cscn1 [Compound 202, N-(5-(2-(4-(trifluoromethyl)phenoxy)ethyl)-1H-indol-3-yl)thiazole-4-carboxamide] was tested, and the EC50 was 200 to 1000 nM.
Cn1nccc1C(=O)Nc1c[nH]c2ccc(OCCc3ccc(C(F)(F)F)cc3)cc12 [Compound 203, 1-methyl-N-(5-(4-(trifluoromethyl)phenethoxy)-1H-indol-3-yl)-1H-pyrazole-5-carboxamide] showed an EC50 of 200 to 1000 nM.
In the case of O=C(Nc1c[nH]c2ccc(O[C@H]3C[C@@H](c4ccc(C(F)(F)F)cc4)C3)cc12)C12CC(O)(C1)C2 [Compound 204, 3-hydroxy-N-(5-(cis-3-(4-(trifluoromethyl)phenyl)cyclobutoxy)-1H-indol-3 yl)bicyclo[1.1.1]pentane-1-carboxamide], the EC50 is reported as 1000 to 5000 nM.
Molecule CC1(C(=O)Nc2c[nH]c3ccc(OCC[C@@H]4C[C@@H]5CN(CC(F)(F)F)C[C@@H]5C4)cc23)CC2(COC2)C1 [Compound 205, 6-methyl-N-(5-(2-((3aR,5r,6aS)-2-(2,2,2-trifluoroethyl)octahydrocyclopenta[c]pyrrol-5-yl)ethoxy)-1H-indol-3-yl)-2-oxaspiro[3.3]heptane-6-carboxamide] has an EC50 of 200 to 1000 nM.
O=C(Nc1c[nH]c2ccc(OCC[C@@H]3C[C@@H]4CN(CC(F)(F)F)C[C@@H]4C3)cc12)C1CC2(COC2)C1 [Compound 206, N-(5-(2-((3aR,5r,6aS)-2-(2,2,2-trifluoroethyl)octahydrocyclopenta[c]pyrrol-5-yl)ethoxy)-1H-indol-3-yl)-2-oxaspiro[3.3]heptane-6-carboxamide] was tested, and the EC50 was 200 to 1000 nM.
With O=C(Nc1c[nH]c2ccc(O[C@H]3C[C@H](c4ccc(C(F)(F)F)cc4)C3)cc12)C1C2COCC21 (stereo partly drawn) [Compound 207, N-(5-(trans-3-(4-(trifluoromethyl)phenyl)cyclobutoxy)-1H-indol-3-yl)-3-oxabicyclo[3.1.0]hexane-6-carboxamide] the EC50 was 200 to 1000 nM.
O=C(Nc1c[nH]c2ccc(OCC[C@@H]3C[C@@H]4CN(CC(F)(F)F)C[C@@H]4C3)cc12)C1CC2C(C1)C2(F)F (stereo partly drawn) [Compound 208, 6,6-difluoro-N-(5-(2-((3aR,5r,6aS)-2-(2,2,2-trifluoroethyl)octahydrocyclopenta[c]pyrrol-5-yl)ethoxy)-1H-indol-3-yl)bicyclo[3.1.0]hexane-3-carboxamide] was tested, and the EC50 was 200 to 1000 nM.
O=C(Nc1c[nH]c2ccc(OCC[C@@H]3C[C@@H]4CN(CC(F)(F)F)C[C@@H]4C3)cc12)C1C2COCC21 (stereo partly drawn) [Compound 210, N-(5-(2-((3aR,5r,6aS)-2-(2,2,2-trifluoroethyl)octahydrocyclopenta[c]pyrrol-5-yl)ethoxy)-1H-indol-3-yl)-3-oxabicyclo[3.1.0]hexane-6-carboxamide] showed an EC50 of 200 to 1000 nM.
In the case of O=C(Nc1c[nH]c2ccc(O[C@H]3C[C@H](c4ccc(C(F)(F)F)cc4)C3)cc12)C1CC2(COC2)C1 [Compound 211, N-{5-[(1R,3R)-3-[4-(trifluoromethyl)phenyl]cyclobutoxy]-1H-indol-3-yl}-2-oxaspiro[3.3]heptane-6-carboxamide], the EC50 is reported as 40 to 200 nM.
Work on O=C(Nc1c[nH]c2ccc(O[C@H]3C[C@H](c4ccc(C(F)(F)F)cc4)C3)cc12)C12CC(C1)C2 [Compound 212, N-{5-[(1R,3R)-3-[4-(trifluoromethyl)phenyl]cyclobutoxy]-1H-indol-3-yl}bicyclo[1.1.1]pentane-1-carboxamide] yielded an EC50 of 40 to 200 nM.
For O=C(Nc1c[nH]c2ccc(O[C@H]3C[C@H](c4ccc(C(F)(F)F)nc4)C3)cc12)c1ccc(C(F)(F)F)cc1 [Compound 213, 4-(trifluoromethyl)-N-(5-(trans-3-(6-(trifluoromethyl)pyridin-3-yl)cyclobutoxy)-1H-indol-3-yl)benzamide], the EC50 was 200 to 1000 nM.
O=C(Nc1c[nH]c2ccc(O[C@H]3C[C@@H](c4ccc(C(F)(F)F)nc4)C3)cc12)c1ccc(C(F)(F)F)cc1 [Compound 214, 4-(trifluoromethyl)-N-(5-(cis-3-(6-(trifluoromethyl)pyridin-3-yl)cyclobutoxy)-1H-indol-3-yl)benzamide] gave an EC50 of 40 to 200 nM.
In the case of O=C(Nc1c[nH]c2ccc(O[C@H]3C[C@H](c4ccc(C(F)(F)F)nc4)C3)cc12)c1ccccc1 [Compound 215, N-(5-(trans-3-(6-(trifluoromethyl)pyridin-3-yl)cyclobutoxy)-1H-indol-3-yl)benzamide], the EC50 is reported as 200 to 1000 nM.
O=C(Nc1c[nH]c2ccc(O[C@H]3C[C@@H](c4ccc(C(F)(F)F)nc4)C3)cc12)c1ccccc1 [Compound 216, N-(5-(cis-3-(6-(trifluoromethyl)pyridin-3-yl)cyclobutoxy)-1H-indol-3-yl)benzamide] gave an EC50 of 40 to 200 nM.
Cn1cc(C(=O)Nc2c[nH]c3ccc(O[C@H]4C[C@@H](c5ccc(C(F)(F)F)nc5)C4)cc23)nn1 [Compound 217, 1-methyl-N-(5-(cis-3-(6-(trifluoromethyl)pyridin-3-yl)cyclobutoxy)-1H-indol-3-yl)-1H-1,2,3-triazole-4-carboxamide] was tested, and the EC50 was 200 to 1000 nM.
Work on O=C(Nc1c[nH]c2ccc(OCc3ccc(C(F)(F)F)cc3)cc12)c1ccccc1 [Compound 218, N-(5-((4-(trifluoromethyl)benzyl)oxy)-1H-indol-3-yl)benzamide] yielded an EC50 of 200 to 1000 nM.
